Data reported in the NIST ThermoML archive (doi:10.1021/je050494l).
Numbers after ± are expanded uncertainties.

Experiment: refractive index (Na D-line) (dimensionless)
Details: 298.2 K, 101.33 kPa, Liquid

refractive index | refractive index (Standard Abbe refractometry) | SMILES
1.466 ± 0.0009 |  | CCCCCCCC[n+]1ccn(C)c1.COCCOCCOS(=O)(=O)[O-] [1-methyl-3-octylimidazolium 2-(2-methoxyethoxy)ethyl sulfate]
1.4318 ± 0.0009 |  | CCCCCCCCCCCCCCCC [hexadecane]
1.385 ± 0.0009 |  | CCCCCCC [heptane]
 | 1.471 ± 0.0006 | CCCCCCCCOS(=O)(=O)[O-].CCn1cc[n+](C)c1 [1-ethyl-3-methylimidazolium octyl sulfate]
1.4972 ± 0.0009 |  | c1ccccc1 [benzene]
